Source: patent US7432365B1, “DNA molecules encoding beta clamp proteins of gram positive bacteria” (priority 1998, dated 2008)

Legend:
PolC·τδδ′, β = biological target: T1, PolC·τδδ′, β (Streptococcus pyogenes, UniProt P0C0B7); test: Inhibition of synthesis on SSB coated primed M13mp18 ssDNA by TMAU; type: biochemical, S. pyogenes; details: 100 μM TMAU, 2% DMSO, 1 min
T1 construct: made in house; host or cells: E. coli BL21(DE3) RecA-, pET11a (β: pET16b)
Description: (§1) To test DnaE for function with τδδ′ and β, replication reactions contained 70 ng (25 fmol) of 30-mer singly primed M13 mp18 ssDNA, 0.82 μg of S. pyogenes SSB, and 3.3 ng-300 ng of DnaE (25 fmol −2.3 pmol) in 23.5 μl of 20 mM Tris-HCl (pH 7.5), 4% glycerol, 0.1 mM EDTA, 5 mM dithiothreitol (DTT), 40 μg/ml BSA, 2 mM ATP, 8 mM MgCl2, and 60 μM each of dGTP and dCTP. When present, reactions included 43.3 ng of β and 10 ng of τδδ′. Reactions were preincubated for 3 min at 37° C., and then NaCl was added to 40 mM followed by another 2 min at 37° C. DNA synthesis was initiated upon addition of 1.5 μl of 1.5 mM dATP, 0.5 mM [α^32P]-dTTP (specific activity 2,000-4,000 cpm/pmol). Aliquots of 25 μl were removed at the indicated times and quenched with an equal volume (25 μl) of 1% SDS, 40 mM EDTA. One-half of the quenched reaction was analyzed for total deoxynucleotide incorporation using DE81 filter paper and the other half was analyzed on a 0.8% neutral agarose gel. The effect of TMAU was also examined, in which 100 μM TMAU in DMSO (2% DMSO final concentration) was present. In this case, replication was allowed to proceed for 1 min before being quenched with […] of 1% SDS, 40 mM EDTA.
(§2) Gram positive PolC is known to be inhibited by the antibiotic hydroxyphenylaza-uracil (“HPUra”) and its derivatives. In FIG. 21F, the PolC·τδδ′, β and DnaE were tested for inhibition of synthesis on SSB coated primed M13mp18 ssDNA by an HPUra derivative, trimethylanilino-uracil (“TMAU”).

DnaE polymerase = test: as above; type: biochemical, S. pyogenes
Description: as §1, §2

Gram positive PolC = Gram positive PolC (Bacillus subtilis, UniProt P13267); details: known from the literature; cited from earlier work
[1] = biological target: T2, Streptococcus pyogenes δ′ subunit (holB gene product) (Streptococcus pyogenes); test: gel filtration on Superose 6 in buffer A with 100 mM NaCl, SDS-PAGE of fractions
T2 construct: also called delta prime; 6′
T2 chain: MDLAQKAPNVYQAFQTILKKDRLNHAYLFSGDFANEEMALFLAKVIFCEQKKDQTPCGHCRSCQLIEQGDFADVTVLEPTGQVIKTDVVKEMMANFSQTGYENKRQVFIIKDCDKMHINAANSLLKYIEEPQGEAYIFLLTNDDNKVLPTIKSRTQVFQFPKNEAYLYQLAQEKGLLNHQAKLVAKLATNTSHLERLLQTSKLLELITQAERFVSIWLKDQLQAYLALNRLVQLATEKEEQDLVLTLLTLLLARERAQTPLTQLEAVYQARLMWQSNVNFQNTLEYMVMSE

[2] = biological target: T3, Streptococcus pyogenes δ subunit (holA gene product) (Streptococcus pyogenes); test: as above
T3 construct: also called delta; putative δ
T3 chain: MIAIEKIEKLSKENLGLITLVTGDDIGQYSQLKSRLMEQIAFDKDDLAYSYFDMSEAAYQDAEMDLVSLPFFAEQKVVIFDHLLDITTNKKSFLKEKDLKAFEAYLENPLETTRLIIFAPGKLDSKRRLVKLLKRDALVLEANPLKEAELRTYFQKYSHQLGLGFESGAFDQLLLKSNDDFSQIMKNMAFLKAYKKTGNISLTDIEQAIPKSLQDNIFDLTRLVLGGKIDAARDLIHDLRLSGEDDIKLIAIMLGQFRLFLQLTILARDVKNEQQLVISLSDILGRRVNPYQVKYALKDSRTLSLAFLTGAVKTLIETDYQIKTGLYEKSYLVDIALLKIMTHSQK

S. aureus Pol III-L = biological target: T4, S. aureus Pol III-L (Staphylococcus aureus, UniProt P0C1P9); test: PolydA-oligodT replication assay, stimulation by beta; type: biochemical; details: linear polydA-oligodT template
T4 construct: made in house; host or cells: E. coli BL21(DE3), pET11PolC (β: pET16b)
Description: PolydA-oligodT was prepared as follows. […] OligodT35 was synthesized by Oligos etc.

E. coli Pol III core = E. coli Pol III core (Escherichia coli, UniProt P10443); details: linear polydA-oligodT template
Source text: DNA synthesis was quantitated using DE81 paper as described in Rowen et al., “Primase, the DnaG Protein of Escherichia coli. An Enzyme Which Starts DNA Chains,” J. Biol. Chem., 253:758-764 (1979), which is hereby incorporated by reference.

Chain of Gram positive PolC (P13267 whole entry): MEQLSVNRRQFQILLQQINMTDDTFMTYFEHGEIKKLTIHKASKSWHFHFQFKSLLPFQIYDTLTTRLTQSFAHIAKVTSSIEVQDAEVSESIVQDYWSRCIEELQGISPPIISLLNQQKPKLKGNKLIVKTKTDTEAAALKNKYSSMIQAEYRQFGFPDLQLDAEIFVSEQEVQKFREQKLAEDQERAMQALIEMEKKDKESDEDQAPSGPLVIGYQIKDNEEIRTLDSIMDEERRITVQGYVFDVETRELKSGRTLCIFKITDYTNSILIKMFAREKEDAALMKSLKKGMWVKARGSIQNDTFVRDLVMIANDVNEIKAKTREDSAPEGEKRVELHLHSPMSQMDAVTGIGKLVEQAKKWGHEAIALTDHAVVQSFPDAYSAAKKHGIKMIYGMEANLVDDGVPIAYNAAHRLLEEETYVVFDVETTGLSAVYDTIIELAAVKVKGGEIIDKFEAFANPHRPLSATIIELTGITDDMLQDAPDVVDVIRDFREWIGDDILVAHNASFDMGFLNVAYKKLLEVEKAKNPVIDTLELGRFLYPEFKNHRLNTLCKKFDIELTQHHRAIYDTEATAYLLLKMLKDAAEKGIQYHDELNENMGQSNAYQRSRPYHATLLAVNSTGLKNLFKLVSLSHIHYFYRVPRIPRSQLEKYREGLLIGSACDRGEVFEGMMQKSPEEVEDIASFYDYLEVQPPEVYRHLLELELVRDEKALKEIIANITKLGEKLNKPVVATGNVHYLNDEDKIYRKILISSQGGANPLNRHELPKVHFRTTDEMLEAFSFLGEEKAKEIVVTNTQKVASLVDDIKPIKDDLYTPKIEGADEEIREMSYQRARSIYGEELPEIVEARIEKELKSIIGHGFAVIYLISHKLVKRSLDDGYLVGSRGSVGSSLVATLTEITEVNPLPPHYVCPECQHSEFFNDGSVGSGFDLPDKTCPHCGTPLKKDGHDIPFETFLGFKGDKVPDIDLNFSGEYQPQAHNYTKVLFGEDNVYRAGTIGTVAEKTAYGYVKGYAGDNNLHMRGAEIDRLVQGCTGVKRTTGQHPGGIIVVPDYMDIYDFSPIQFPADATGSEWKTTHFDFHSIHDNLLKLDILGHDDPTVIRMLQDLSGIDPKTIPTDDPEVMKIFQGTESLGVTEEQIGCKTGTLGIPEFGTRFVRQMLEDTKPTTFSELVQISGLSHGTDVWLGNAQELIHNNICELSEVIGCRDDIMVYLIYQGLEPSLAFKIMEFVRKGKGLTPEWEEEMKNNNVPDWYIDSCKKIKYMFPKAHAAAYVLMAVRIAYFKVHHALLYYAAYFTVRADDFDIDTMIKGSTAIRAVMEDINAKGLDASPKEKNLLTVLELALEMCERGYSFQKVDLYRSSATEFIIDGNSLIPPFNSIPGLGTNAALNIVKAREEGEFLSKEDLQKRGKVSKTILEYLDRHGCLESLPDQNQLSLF
T1 sequence (P0C0B7 whole entry D425A/L426T/C427Y/G428V/L429V/S430F): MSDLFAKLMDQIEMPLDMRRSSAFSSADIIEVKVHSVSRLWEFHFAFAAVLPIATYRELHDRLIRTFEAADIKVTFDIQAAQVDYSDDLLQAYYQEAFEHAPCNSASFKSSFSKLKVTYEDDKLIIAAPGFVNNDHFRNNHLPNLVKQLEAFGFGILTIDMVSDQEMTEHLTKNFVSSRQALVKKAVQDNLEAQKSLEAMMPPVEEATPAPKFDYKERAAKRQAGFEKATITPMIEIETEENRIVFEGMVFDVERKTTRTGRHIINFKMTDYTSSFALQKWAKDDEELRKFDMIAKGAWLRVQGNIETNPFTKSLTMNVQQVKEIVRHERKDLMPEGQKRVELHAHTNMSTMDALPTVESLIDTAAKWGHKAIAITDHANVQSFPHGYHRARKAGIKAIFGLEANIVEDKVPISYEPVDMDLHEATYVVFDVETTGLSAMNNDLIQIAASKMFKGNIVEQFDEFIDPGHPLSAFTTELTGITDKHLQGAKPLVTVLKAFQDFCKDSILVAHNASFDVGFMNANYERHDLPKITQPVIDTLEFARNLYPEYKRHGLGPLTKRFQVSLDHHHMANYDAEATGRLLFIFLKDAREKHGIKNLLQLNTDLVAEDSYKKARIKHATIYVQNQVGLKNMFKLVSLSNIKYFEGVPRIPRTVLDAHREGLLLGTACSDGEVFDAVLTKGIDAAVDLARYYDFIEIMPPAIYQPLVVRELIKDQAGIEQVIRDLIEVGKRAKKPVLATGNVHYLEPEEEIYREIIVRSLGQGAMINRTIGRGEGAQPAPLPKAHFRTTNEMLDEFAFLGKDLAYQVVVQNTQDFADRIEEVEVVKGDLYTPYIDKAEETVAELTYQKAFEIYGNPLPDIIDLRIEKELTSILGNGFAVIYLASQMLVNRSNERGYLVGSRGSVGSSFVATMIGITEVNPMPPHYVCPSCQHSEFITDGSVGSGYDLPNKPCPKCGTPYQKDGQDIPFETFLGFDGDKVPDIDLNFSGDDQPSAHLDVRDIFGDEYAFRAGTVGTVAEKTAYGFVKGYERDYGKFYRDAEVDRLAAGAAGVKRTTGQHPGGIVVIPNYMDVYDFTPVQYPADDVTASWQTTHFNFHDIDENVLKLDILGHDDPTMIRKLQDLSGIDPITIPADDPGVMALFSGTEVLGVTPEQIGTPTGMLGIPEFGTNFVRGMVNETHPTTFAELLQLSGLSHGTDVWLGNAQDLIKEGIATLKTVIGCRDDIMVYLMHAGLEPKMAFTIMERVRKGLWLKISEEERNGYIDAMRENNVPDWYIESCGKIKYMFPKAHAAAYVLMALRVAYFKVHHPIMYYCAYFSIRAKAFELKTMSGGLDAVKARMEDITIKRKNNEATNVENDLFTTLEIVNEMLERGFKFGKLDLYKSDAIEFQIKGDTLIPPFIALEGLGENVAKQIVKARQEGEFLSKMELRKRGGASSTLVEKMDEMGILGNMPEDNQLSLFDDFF
Chain of E. coli Pol III core (P10443 whole entry): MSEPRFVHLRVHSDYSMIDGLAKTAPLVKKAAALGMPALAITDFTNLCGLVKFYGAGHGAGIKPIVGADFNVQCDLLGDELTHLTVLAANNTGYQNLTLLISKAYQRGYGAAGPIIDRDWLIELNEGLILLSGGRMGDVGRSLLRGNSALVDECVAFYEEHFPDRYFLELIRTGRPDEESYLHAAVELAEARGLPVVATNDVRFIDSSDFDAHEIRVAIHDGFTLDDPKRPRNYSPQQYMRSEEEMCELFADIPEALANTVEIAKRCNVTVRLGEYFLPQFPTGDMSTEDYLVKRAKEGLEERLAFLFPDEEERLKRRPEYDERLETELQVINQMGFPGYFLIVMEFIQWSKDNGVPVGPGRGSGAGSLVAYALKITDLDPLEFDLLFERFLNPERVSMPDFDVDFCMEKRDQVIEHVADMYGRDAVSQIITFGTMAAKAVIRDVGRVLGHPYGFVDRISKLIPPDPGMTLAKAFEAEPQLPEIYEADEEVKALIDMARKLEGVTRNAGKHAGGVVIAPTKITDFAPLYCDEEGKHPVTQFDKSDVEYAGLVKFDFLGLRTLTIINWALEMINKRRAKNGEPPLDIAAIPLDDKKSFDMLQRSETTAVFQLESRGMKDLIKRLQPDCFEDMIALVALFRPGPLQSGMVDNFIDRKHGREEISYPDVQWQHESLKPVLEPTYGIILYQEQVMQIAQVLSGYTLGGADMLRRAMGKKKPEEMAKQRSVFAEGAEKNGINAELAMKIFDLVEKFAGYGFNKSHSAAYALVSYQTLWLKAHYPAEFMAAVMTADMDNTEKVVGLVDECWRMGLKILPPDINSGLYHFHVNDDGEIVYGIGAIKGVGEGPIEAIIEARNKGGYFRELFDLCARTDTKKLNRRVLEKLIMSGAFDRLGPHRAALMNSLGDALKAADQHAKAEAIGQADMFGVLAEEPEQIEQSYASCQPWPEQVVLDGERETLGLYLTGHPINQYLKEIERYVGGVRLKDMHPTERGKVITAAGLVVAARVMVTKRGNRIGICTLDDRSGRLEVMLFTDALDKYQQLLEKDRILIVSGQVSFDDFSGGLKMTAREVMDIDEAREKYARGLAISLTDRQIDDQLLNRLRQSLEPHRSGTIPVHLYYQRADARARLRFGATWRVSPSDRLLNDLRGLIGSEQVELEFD
Chain of E. coli Pol III core (P03007 whole entry, further chain): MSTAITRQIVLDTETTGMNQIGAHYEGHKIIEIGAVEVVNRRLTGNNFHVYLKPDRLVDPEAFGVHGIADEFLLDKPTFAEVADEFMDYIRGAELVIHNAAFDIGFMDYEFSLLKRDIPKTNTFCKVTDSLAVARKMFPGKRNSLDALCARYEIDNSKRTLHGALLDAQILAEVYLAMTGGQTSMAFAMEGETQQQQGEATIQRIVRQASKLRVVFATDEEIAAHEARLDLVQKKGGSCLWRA
Chain of E. coli Pol III core (P0ABS8 whole entry, further chain): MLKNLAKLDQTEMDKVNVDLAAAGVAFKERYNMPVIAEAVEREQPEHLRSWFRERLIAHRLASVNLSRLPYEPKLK

## O=c1cc(Nc2ccc3c(c2)CCC3)[nH]c(=O)[nH]1 [TMAU, trimethylanilino-uracil]
PolC·τδδ′, β
  Inhibition of synthesis (formation of RFII product): prevented from forming the RFII product
DnaE polymerase; 100 μM TMAU, in the presence of τδδ′/β
  Inhibition of synthesis (formation of RFII product): not affected
DnaE polymerase; TMAU, in the absence of τδδ′/β (not shown)
  Inhibition of synthesis (formation of RFII product): not affected

## O=c1cc(N=Nc2ccc(O)cc2)[nH]c(=O)[nH]1 [HPUra, hydroxyphenylaza-uracil]
Gram positive PolC
  Inhibition of Gram positive PolC: inhibited

B1: Streptococcus pyogenes τ subunit (dnaX gene product) (other)
chain: MYQALYRKYRSQTFDEMVGQSVISTTLKQAVESGKISHAYLFSGPRGTGKTSAAKIFAKAMNCPNQVDGEPCNQCDICRDITNGSLEDVIEIDAASNNGVDEIRDIRDKSTYAPSRATYKVYIIDEVHMLSTGAFNALLKTLEEPTENVFILATTELHKIPATILSRVQRFEFKAIKQKAIREHLAWVLDKEGIAYEVDALNLIARRAEGGMRDALSILDQALSLSPDNQVAIAIAEEITGSISILALGDYVRYVSQEQATQALAALETIYDSGKSMSRFATDLLTYLRDLLVVKAGGDNQRQSAVFDTNLSLSIDRIFQMITVVTSHLPEIKKGTHPRIYAEMMTIQLAQKEQILSQVNLSGELISEIETLKNELAQLKQQLSQLQSRPDSLARSDKTKPKTTSYRVDRVTILKIMEETVRNSQQSRQYLDALKNAWNEILDNISAQDRALLMGSEPVLANSENAILAFEAAFNAEQVMSRNNLNDMFGNIMSKAAGFSPNILAVPRTDFQHIRKEFAQQMKSQKDSVQEEQEVALDIPEGFDFLLDKINTIDD
notes: also called tau; DnaX-protein
[1]
  binding result: no binding (tested: δ′ (200 µg) in 100 µl)
[2]
  binding result: no binding (tested: δ (200 µg) in 100 µl)

B2: S. aureus beta: S. aureus beta subunit encoded by dnaN, SEQ. ID. No. 10, sliding clamp (protein)
chain: MMEFTIKRDYFITQLNDTLKAISPRTTLPILTGIKIDAKEHEVILTGSDSEISIEITIPKTVDGEDIVNISETGSVVLPGRFFVDIIKKLPGKDVKLSTNEQFQTLITSGHSEFNLSGLDPDQYPLLPQVSRDDAIQLSVKVLKNVIAQTNFAVSTSETRPVLTGVNWLIQENELICTATDSHRLAVRKLQLEDVSENKNVIIPGKALAELNKIMSDNEEDIDIFFASNQVLFKVGNVNFISRLLEGHYPDTTRLFPENYEIKLSIDNGEFYHAIDRASLLAREGGNNVIKLSTGDDVVELSSTSPEIGTVKEEVDANDVEGGSLKISFNSKYMMDALKAIDNDEVEVEFFGTMKPFILKPKGDDSVTQLILPIRTY
modifications: left off: small tags and cut ends
notes: ID; No. 10, sliding clamp
S. aureus Pol III-L
  Stimulation of polymerase DNA synthesis: 5-6 fold
E. coli Pol III core
  Stimulation of polymerase DNA synthesis: about 5 fold
